Among the data in patent US20260184663A1, “INDENE COMPOUNDS, PHARMACEUTICAL COMPOSITIONS THEREOF, AND THEIR THERAPEUTIC APPLICATIONS” (NucMito Pharmaceuticals co. Ltd., priority 2022, published 2026) are inhibition values, retold here.

What all share (type): cell-based
One experiment has as its system HeLa (cervical cancer). Description: Antiproliferative activity (CCK-8 cell viability), HeLa. The settings on record: Homo sapiens, 72 h, read-out: Antiproliferative activity in cancerous cells, HELA (inhibition of cell growth); for inhibition at 3.3 µM: Compound concentration: 3.3 μM; for inhibition at 10 µM: Compound concentration: 10 μM; for inhibition at 30 µM: Compound concentration: 30 μM. Summed up: (§1)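 Cells were seeded at 2,000-5,000/well (HeLa in MEM, HepG2 and SW480 in DMEM, A549 in F-12K, all with 10% FBS) and treated with compound at 3.3, 10 or 30 μM for 72 h at 37° C. CCK-8 was added for 4 h, absorbance was read at 450 nm, and viability was expressed relative to DMSO-treated wells.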

The subject of experiment [1] is alpha-smooth muscle actin (α-SMA). Description: Inhibition of TGF-β induced expression of alpha-smooth muscle actin (α-SMA) in CFSC cells (western blot). To be noted: compound at 10 μM, TGF-β (10 ng/mL), 24 hours, band intensity vs TGF-β only. Summed up: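 CFSC hepatic stellate cells in serum-free DMEM treated 24 h at 37 °C with compound at 10 μM plus TGF-β (10 ng/mL). α-SMA measured by Western blot with β-actin, ECL detection, densitometry. Percent inhibition is decrease in band intensity versus TGF-β-only cells.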
(A western blot detects proteins with antibodies after separation by electrophoresis.)

For the next experiment, the system named is SW480 (colon cancer). As to the kind of experiment: Antiproliferative activity (CCK-8 cell viability), SW480. To be noted: Homo sapiens, 72 h, read-out: Antiproliferative activity in cancerous cells, SW480 (inhibition of cell growth); for inhibition at 3.3 µM: Compound concentration: 3.3 μM; for inhibition at 10 µM: Compound concentration: 10 μM; for inhibition at 30 µM: Compound concentration: 30 μM. In short, it runs like this:
as §1

Experiment [2] concerns A431 (epidermoid carcinoma). Description: Antiproliferative activity (CCK-8 cell viability), A431. The settings on record: Homo sapiens, 72 h, read-out: Antiproliferative activity in cancerous cells, A431 (inhibition of cell growth); for inhibition at 3.3 µM: A-431, Compound concentration: 3.3 μM; for inhibition at 10 µM: A-431, Compound concentration: 10 μM; for inhibition at 30 µM: A-431, Compound concentration: 30 μM. Summed up:
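Cell viability of compound-treated A431 cells was measured with a Cell Counting Kit-8. Each well received 10 μL of CCK-8 after 72 h of compound exposure, followed by 4 h incubation at 37° C. and a 450 nm plate-reader measurement. Percent viability was calculated relative to DMSO controls across replicates.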

For experiment [3], the system named is A549 (lung adenocarcinoma). As to the kind of experiment: Antiproliferative activity (CCK-8 cell viability), A549. To be noted: Homo sapiens, 72 h, read-out: Antiproliferative activity in cancerous cells, A549 (inhibition of cell growth); for inhibition at 3.3 µM: Compound concentration: 3.3 μM; for inhibition at 10 µM: Compound concentration: 10 μM; for inhibition at 30 µM: Compound concentration: 30 μM. Summed up: as §1

The subject of the next experiment is HepG2 (liver cancer). As to the kind of experiment: Antiproliferative activity (CCK-8 cell viability), HepG2. The settings on record: Homo sapiens, 72 h, read-out: Antiproliferative activity in cancerous cells, HepG2 (inhibition of cell growth); for inhibition at 3.3 µM: Compound concentration: 3.3 μM; for inhibition at 10 µM: Compound concentration: 10 μM; for inhibition at 30 µM: Compound concentration: 30 μM. Summed up: as §1

Experiment [4] has as its system MDA-MB-231 (breast cancer). As to the kind of experiment: Antiproliferative activity (CCK-8 cell viability), MDA-MB-231. To be noted: Homo sapiens, 72 h, read-out: Antiproliferative activity in cancerous cells, MDA-MB-231 (inhibition of cell growth); for inhibition at 3.3 µM: Compound concentration: 3.3 μM; for inhibition at 10 µM: Compound concentration: 10 μM; for inhibition at 30 µM: Compound concentration: 30 μM. Summed up: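 In this CCK-8 viability assay, MDA-MB-231 cells maintained in Dulbecco's modified Eagle's medium containing 10% fetal bovine serum were placed in 96-well plates (2,000-5,000 cells/well) and treated with compound for 72 h at 37° C. A 4 h incubation with 10 μL CCK-8 followed, plates were read at 450 nm, and viability was expressed against DMSO vehicle wells across replicates.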

The subject of experiment [5] is B16F10 (malignant melanoma). Description: Antiproliferative activity (CCK-8 cell viability), B16F10. To be noted: Mus musculus, 72 h, read-out: Antiproliferative activity in cancerous cells, B16F10 (inhibition of cell growth); for inhibition at 3.3 µM: B16-F10, Compound concentration: 3.3 μM; for inhibition at 10 µM: B16-F10, Compound concentration: 10 μM; for inhibition at 30 µM: B16-F10, Compound concentration: 30 μM. In short, it runs like this:
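Attached B16F10 cells in 96-well plates were incubated with compound at 37° C for 72 h, followed by 10 μL CCK-8 reagent per well and a further 4 h incubation. A multi-well plate reader measured absorbance at 450 nm. Percent viability across replicates was calculated against DMSO vehicle-treated cells.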

Structures are written as SMILES.

For orientation: inhibition means the relative decrease from the control value, in per cent. As to `CC1=C(CC(=O)O)c2cc(F)ccc2/C1=C/c1cccc(Oc2cccc(C(F)(F)F)c2)c1` [E16, (E)-2-(5-Fluoro-2-methyl-1-(3-(3-(trifluoromethyl)phenoxy)benzylidene)-1H-inden-3-yl)acetic acid], the inhibition at 3.3 µM with HeLa (cervical cancer) was at least 50%; with SW480 (colon cancer), under 30%; in experiment [2], under 30%; in experiment [3] it was 30 to 50%; in the experiment with HepG2 (liver cancer) it was under 30%; in experiment [4], 30 to 50%. Besides, the inhibition at 3.3 µM in experiment [5] was under 30%. Also, the inhibition at 10 µM in the experiment on HeLa (cervical cancer) was at least 50%; in experiment [1] it was over 80%; with SW480 (colon cancer), under 30%; in experiment [2], under 30%; in experiment [3], 30 to 50%; in the experiment with HepG2 (liver cancer), 30 to 50%. Moreover, the inhibition at 10 µM in experiment [4] was 30 to 50%; in experiment [5] it was under 30%. The inhibition at 30 µM (in the experiment with HeLa (cervical cancer); with SW480 (colon cancer); in experiment [2]; in experiment [3]; with HepG2 (liver cancer); in experiment [4]) was at least 50% throughout. For the same molecule, in experiment [5], the inhibition at 30 µM is at least 50%.

Take `CCCC1=C(CC(=O)O)c2cc(F)ccc2/C1=C\c1ccc(COc2ccccc2)cc1` [A4, (Z)-2-(5-Fluoro-1-(4-(phenoxymethyl)benzylidene)-2-propyl-1H-inden-3-yl)-acetic acid]: the inhibition at 3.3 µM is at least 50% in the experiment on HeLa (cervical cancer); under 30% in the experiment on SW480 (colon cancer); under 30% in experiment [2]; 30 to 50% in experiment [3]; 30 to 50% with HepG2 (liver cancer); at least 50% in experiment [4]. The inhibition at 3.3 µM in experiment [5] was 30 to 50%. The inhibition at 10 µM was at least 50% in the experiment on HeLa (cervical cancer); 50 to 80% in experiment [1]; 30 to 50% in the experiment with SW480 (colon cancer); at least 50% in experiment [2]; at least 50% in experiment [3]; at least 50% with HepG2 (liver cancer). Besides, the inhibition at 10 µM in experiment [4] and in experiment [5] was at least 50% throughout.

As to `O=C(O)CC1=C(Cc2ccc(C(F)(F)F)cc2)/C(=C/c2cccc(Oc3ccccc3)c2)c2ccc(F)cc21` [C13, (Z)-2-(5-Fluoro-1-(3-phenoxybenzylidene)-2-(4-(trifluoromethyl)benzyl)-1H-inden-3-yl)acetic acid], the inhibition at 3.3 µM (in the experiment on HeLa (cervical cancer); in the experiment on SW480 (colon cancer); in experiment [2]; in experiment [3]; in the experiment on HepG2 (liver cancer); in experiment [4]) was at least 50% each time. The inhibition at 3.3 µM in experiment [5] is at least 50%. In addition, the inhibition at 10 µM in the experiment with HeLa (cervical cancer) is at least 50%; in experiment [1], over 80%; in the experiment on SW480 (colon cancer), at least 50%; in experiment [2], at least 50%; in experiment [3], at least 50%; in the experiment on HepG2 (liver cancer), at least 50%. Further, the inhibition at 10 µM in experiment [4] and in experiment [5] was at least 50% in each case.

Take `CC(C)c1ccc(/C=C2/C(Cc3ccc(F)cc3)=C(CC(=O)O)c3cc(F)ccc32)cc1` [D2, (Z)-2-(5-Fluoro-2-(4-fluorobenzyl)-1-(4-isopropylbenzylidene)-1H-inden-3-yl)-acetic acid]: the inhibition at 3.3 µM in the experiment on HeLa (cervical cancer) was 30 to 50%; in the experiment on SW480 (colon cancer) it was under 30%; in experiment [2], under 30%; in experiment [3], 30 to 50%; with HepG2 (liver cancer) it was under 30%; in experiment [4], at least 50%. Moreover, in experiment [5], the inhibition at 3.3 µM was under 30%. Also, the inhibition at 10 µM is at least 50% in the experiment on HeLa (cervical cancer); over 80% in experiment [1]; at least 50% with SW480 (colon cancer); at least 50% in experiment [2]; at least 50% in experiment [3]; at least 50% in the experiment with HepG2 (liver cancer). The inhibition at 10 µM in experiment [4] and in experiment [5] was at least 50% throughout. Further, the inhibition at 30 µM (with HeLa (cervical cancer); with SW480 (colon cancer); in experiment [2]; in experiment [3]; in the experiment on HepG2 (liver cancer); in experiment [4]) was at least 50% throughout. Further, in experiment [5], the inhibition at 30 µM is at least 50%.

Turning to `CC1=C(CC(=O)O)c2c(F)ccc(F)c2/C1=C/c1ccc(C(F)(F)F)cc1` [E15, (E)-2-(4,7-Difluoro-2-methyl-1-(4-(trifluoromethyl)benzylidene)-1H-inden-3-yl)-acetic acid], the inhibition at 3.3 µM in the experiment with HeLa (cervical cancer) was under 30%; with SW480 (colon cancer) it was under 30%; in experiment [2], under 30%; in experiment [3] it was under 30%; in the experiment with HepG2 (liver cancer) it was under 30%; in experiment [4], at least 50%. Further, the inhibition at 3.3 µM in experiment [5] was under 30%. For the same molecule, the inhibition at 10 µM in the experiment on HeLa (cervical cancer) was 30 to 50%; in experiment [1], under 30%; with SW480 (colon cancer) it was under 30%; in experiment [2], under 30%; in experiment [3], under 30%; with HepG2 (liver cancer), under 30%. Further, the inhibition at 10 µM in experiment [4] was at least 50%; in experiment [5], under 30%. The inhibition at 30 µM in the experiment with HeLa (cervical cancer) is at least 50%; in the experiment on SW480 (colon cancer), under 30%; in experiment [2], at least 50%; in experiment [3], at least 50%; in the experiment on HepG2 (liver cancer) it was under 30%; in experiment [4], at least 50%. The inhibition at 30 µM in experiment [5] is at least 50%.
